Numbers after ± are expanded uncertainties.
Assay: xn = mol fraction of the nth substance listed
Details: Liquid

ClCBr [bromochloromethane] + CCOC(C)=O
Details	mass density [kg/m3]
288.15 K, 101.33 kPa, x1 = 0.0961	976.08 ± 0.36
288.15 K, 101.33 kPa, x1 = 0.2333	1083.23 ± 0.51
288.15 K, 101.33 kPa, x1 = 0.3083	1145.77 ± 0.65
288.15 K, 101.33 kPa, x1 = 0.4015	1228.4 ± 0.84
288.15 K, 101.33 kPa, x1 = 0.5004	1322.97 ± 1.1
288.15 K, 101.33 kPa, x1 = 0.604	1430.45 ± 1.3
288.15 K, 101.33 kPa, x1 = 0.7004	1538.94 ± 1.6
288.15 K, 101.33 kPa, x1 = 0.7987	1659.96 ± 1.9
288.15 K, 101.33 kPa, x1 = 0.9032	1800.66 ± 2.2
288.15 K, 101.33 kPa, x1 = 1	1945.94 ± 2.6
298.15 K, 101.33 kPa, x1 = 0.0961	963.62 ± 0.38
298.15 K, 101.33 kPa, x1 = 0.2333	1069.74 ± 0.48
298.15 K, 101.33 kPa, x1 = 0.3083	1131.77 ± 0.62
298.15 K, 101.33 kPa, x1 = 0.4015	1213.84 ± 0.81
298.15 K, 101.33 kPa, x1 = 0.5004	1308.02 ± 1
298.15 K, 101.33 kPa, x1 = 0.604	1414.77 ± 1.3
298.15 K, 101.33 kPa, x1 = 0.7004	1522.14 ± 1.6
298.15 K, 101.33 kPa, x1 = 0.7987	1641.51 ± 1.9
298.15 K, 101.33 kPa, x1 = 0.9032	1780.71 ± 2.2
298.15 K, 101.33 kPa, x1 = 1	1924.88 ± 2.5
298.15 K, 200 kPa, x1 = 0.2995	1118.5 ± 0.59
298.15 K, 200 kPa, x1 = 0.5013	1299.53 ± 1
298.15 K, 200 kPa, x1 = 0.6994	1514.36 ± 1.6
298.15 K, 600 kPa, x1 = 0.2995	1119.03 ± 0.6
298.15 K, 600 kPa, x1 = 0.5013	1300.17 ± 1.1
298.15 K, 700 kPa, x1 = 0.6994	1515.04 ± 1.6
298.15 K, 1100 kPa, x1 = 0.2995	1119.69 ± 0.62
298.15 K, 1200 kPa, x1 = 0.5013	1300.97 ± 1.1
298.15 K, 1200 kPa, x1 = 0.6994	1515.77 ± 1.7
298.15 K, 1900 kPa, x1 = 0.6994	1516.63 ± 1.7
298.15 K, 2000 kPa, x1 = 0.2995	1120.79 ± 0.64
298.15 K, 2100 kPa, x1 = 0.5013	1301.96 ± 1.1
298.15 K, 3000 kPa, x1 = 0.5013	1303.21 ± 1.2
298.15 K, 3100 kPa, x1 = 0.2995	1121.97 ± 0.67
298.15 K, 3100 kPa, x1 = 0.6994	1518.35 ± 1.9
298.15 K, 4000 kPa, x1 = 0.2995	1123.04 ± 0.69
298.15 K, 4000 kPa, x1 = 0.5013	1304.49 ± 1.3
298.15 K, 4000 kPa, x1 = 0.6994	1519.64 ± 2
298.15 K, 4900 kPa, x1 = 0.5013	1305.64 ± 1.3
298.15 K, 5100 kPa, x1 = 0.2995	1124.32 ± 0.72
298.15 K, 5100 kPa, x1 = 0.6994	1521.08 ± 2.1
298.15 K, 5800 kPa, x1 = 0.6994	1522.03 ± 2.2
298.15 K, 6000 kPa, x1 = 0.5013	1306.93 ± 1.4
298.15 K, 6100 kPa, x1 = 0.2995	1125.53 ± 0.75
298.15 K, 6800 kPa, x1 = 0.6994	1523.33 ± 2.3
298.15 K, 6900 kPa, x1 = 0.2995	1126.38 ± 0.78
298.15 K, 7000 kPa, x1 = 0.5013	1308.07 ± 1.5
298.15 K, 7800 kPa, x1 = 0.5013	1309.22 ± 1.6
298.15 K, 7900 kPa, x1 = 0.2995	1127.44 ± 0.81
298.15 K, 7900 kPa, x1 = 0.6994	1524.7 ± 2.5
298.15 K, 8700 kPa, x1 = 0.6994	1525.86 ± 2.6
298.15 K, 8800 kPa, x1 = 0.5013	1310.44 ± 1.6
298.15 K, 9000 kPa, x1 = 0.2995	1128.74 ± 0.84
298.15 K, 9800 kPa, x1 = 0.5013	1311.74 ± 1.7
298.15 K, 9800 kPa, x1 = 0.6994	1527.42 ± 2.7
298.15 K, 9900 kPa, x1 = 0.2995	1129.86 ± 0.87
298.15 K, 11800 kPa, x1 = 0.2995	1131.84 ± 0.93
298.15 K, 11900 kPa, x1 = 0.6994	1530.29 ± 3
298.15 K, 12100 kPa, x1 = 0.5013	1314.57 ± 1.9
298.15 K, 13800 kPa, x1 = 0.2995	1134.16 ± 1
298.15 K, 13800 kPa, x1 = 0.6994	1532.98 ± 3.2
298.15 K, 13900 kPa, x1 = 0.5013	1316.83 ± 2
298.15 K, 15700 kPa, x1 = 0.2995	1136.18 ± 1.1
298.15 K, 15900 kPa, x1 = 0.5013	1319.23 ± 2.2
298.15 K, 15900 kPa, x1 = 0.6994	1535.7 ± 3.5
298.15 K, 17600 kPa, x1 = 0.5013	1321.38 ± 2.3
298.15 K, 17700 kPa, x1 = 0.2995	1138.39 ± 1.1
298.15 K, 17700 kPa, x1 = 0.6994	1538.2 ± 3.7
298.15 K, 19200 kPa, x1 = 0.6994	1540.32 ± 3.9
298.15 K, 19400 kPa, x1 = 0.6994	1540.59 ± 3.9
298.15 K, 19900 kPa, x1 = 0.5013	1324.19 ± 2.5
298.15 K, 20000 kPa, x1 = 0.2995	1140.92 ± 1.2
308.15 K, 101.33 kPa, x1 = 0.0961	949.99 ± 0.4
308.15 K, 101.33 kPa, x1 = 0.2333	1054.79 ± 0.46
308.15 K, 101.33 kPa, x1 = 0.3083	1116.41 ± 0.59
308.15 K, 101.33 kPa, x1 = 0.4015	1197.33 ± 0.78
308.15 K, 101.33 kPa, x1 = 0.5004	1290.38 ± 1
308.15 K, 101.33 kPa, x1 = 0.604	1396.09 ± 1.2
308.15 K, 101.33 kPa, x1 = 0.7004	1502.46 ± 1.5
308.15 K, 101.33 kPa, x1 = 0.7987	1620.66 ± 1.8
308.15 K, 101.33 kPa, x1 = 0.9032	1758.33 ± 2.1
308.15 K, 101.33 kPa, x1 = 1	1900.86 ± 2.5

From the NIST ThermoML archive (doi:10.1007/s10765-005-5570-x)
